According to US10081624B2, “Heterocyclic compound” (Takeda Pharmaceutical Company Limited, priority 2014, dated 2018):

Target: T1, HDAC6 enzyme (Homo sapiens, UniProt Q9UBN7)
T1 construct: prepared by transducing full length HDAC1 and HDAC6 genes into Sf-9 insect cells; GST; purchased SignalChem; host or cells: Sf-9 insect cells
T1 sequence (Q9UBN7 1-1215): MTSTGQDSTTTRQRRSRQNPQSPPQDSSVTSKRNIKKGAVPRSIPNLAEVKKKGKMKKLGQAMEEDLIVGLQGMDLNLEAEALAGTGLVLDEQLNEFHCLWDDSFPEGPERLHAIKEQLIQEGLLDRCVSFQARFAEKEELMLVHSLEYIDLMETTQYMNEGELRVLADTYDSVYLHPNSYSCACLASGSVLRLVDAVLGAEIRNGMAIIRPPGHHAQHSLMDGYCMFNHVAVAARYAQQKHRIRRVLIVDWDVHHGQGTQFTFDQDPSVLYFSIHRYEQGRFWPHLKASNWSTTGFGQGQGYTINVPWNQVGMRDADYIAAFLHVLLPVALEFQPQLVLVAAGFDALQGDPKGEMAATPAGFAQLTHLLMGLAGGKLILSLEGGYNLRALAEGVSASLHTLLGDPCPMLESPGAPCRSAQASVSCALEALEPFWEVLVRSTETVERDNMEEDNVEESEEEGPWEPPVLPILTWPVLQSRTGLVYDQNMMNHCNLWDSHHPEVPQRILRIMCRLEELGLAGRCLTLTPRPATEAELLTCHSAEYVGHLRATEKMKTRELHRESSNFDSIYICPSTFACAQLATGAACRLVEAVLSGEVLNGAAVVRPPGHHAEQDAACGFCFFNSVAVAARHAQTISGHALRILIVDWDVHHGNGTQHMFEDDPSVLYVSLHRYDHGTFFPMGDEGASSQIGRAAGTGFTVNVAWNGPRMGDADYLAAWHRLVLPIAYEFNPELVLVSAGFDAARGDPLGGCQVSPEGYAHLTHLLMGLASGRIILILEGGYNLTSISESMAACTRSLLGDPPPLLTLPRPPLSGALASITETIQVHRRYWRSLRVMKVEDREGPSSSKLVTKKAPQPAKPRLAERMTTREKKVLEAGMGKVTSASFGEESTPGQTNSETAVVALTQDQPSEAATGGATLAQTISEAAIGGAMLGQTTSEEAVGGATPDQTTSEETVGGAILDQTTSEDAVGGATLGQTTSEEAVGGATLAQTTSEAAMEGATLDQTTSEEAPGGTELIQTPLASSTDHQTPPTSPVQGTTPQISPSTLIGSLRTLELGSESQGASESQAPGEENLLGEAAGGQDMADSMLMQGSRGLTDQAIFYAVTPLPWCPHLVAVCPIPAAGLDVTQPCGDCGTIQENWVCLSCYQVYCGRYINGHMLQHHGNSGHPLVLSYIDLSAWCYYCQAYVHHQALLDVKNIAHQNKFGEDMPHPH
Assay: HDAC6 enzyme inhibitory assay (HDAC-Glo I/II Assay kit)
Format: biochemical
Conditions: 1 μM test compound; read-out: HDAC6 inhibitory rate (%) (1 μM)
Experimental: HDAC1 enzyme and HDAC6 enzyme each prepared by transducing full length HDAC1 and HDAC6 genes into Sf-9 insect cells and purifying by GST affinity column were purchased from SignalChem. Using these enzymes, HDAC1 and/or HDAC6 enzyme inhibitory activities of the compound of the present invention were evaluated. Enzymes were used after preserved at −70° C. HDAC1 or HDAC6 enzyme inhibitory activity of the compound of the present invention was measured using HDAC-Glo™ I/II Assay kit (Promega) according to the following experimental method. The test compound diluted with assay buffer (24 mM Tris-HCl (pH 7.5), 1 mM MgCl2, 0.35 mM KCl, 135 mM NaCl, 0.6 mM Glutathione, 0.01% Tween-20) was added to a 384-well plate by each 2 μL. Then, HDAC1 or HDAC6 enzyme solution diluted with assay buffer was added thereto by each 4 μL, and the plate was incubated at room temperature for 60 min. After incubated, HDAC substrate-Developer solution prepared according to Promega protocol attached to the assay kit was added to the 384-well plate by each 2 μL, and the enzyme reaction was started. After reacting at room temperature for 20 min, luminescence level was measured using plate reader Envision (PerkinElmer). The inhibitory activity of each compound was calculated as a relative activity value when luminescence level in wells without enzyme is considered as 100% inhibition.

SMILES	inhibition at 1 µM [%]
O=C(NCC1COCCN1C(=O)c1cccs1)c1ccc(-c2noc(C(F)(F)F)n2)s1 (stereo not shown) [Example 241, N-((4-(2-thienylcarbonyl)morpholin-3-yl)methyl)-5-(5-(trifluoromethyl)-1,2,4-oxadiazol-3-yl)thiophene-2-carboxamide]	94
O=C(NC[C@H]1COCCN1C(=O)C(c1ccccc1)c1ccccc1)c1ccc(-c2noc(C(F)(F)F)n2)cc1 [Example 57, N-(((3S)-4-(diphenylacetyl)morpholin-3-yl)methyl)-4-(5-(trifluoromethyl)-1,2,4-oxadiazol-3-yl)benzamide]	56
Cc1ncsc1C(=O)N1CCOC[C@H]1CNC(=O)c1ccc(-c2noc(C(F)(F)F)n2)cc1 [Example 141, N-(((3R)-4-((4-methyl-1,3-thiazol-5-yl)carbonyl)morpholin-3-yl)methyl)-4-(5-(trifluoromethyl)-1,2,4-oxadiazol-3-yl)benzamide]	89
O=C(NCC1COCCN1C(=O)c1ccccn1)c1ccc(-c2noc(C(F)(F)F)n2)s1 (stereo not shown) [Example 224, N-((4-(pyridin-2-ylcarbonyl)morpholin-3-yl)methyl)-5-(5-(trifluoromethyl)-1,2,4-oxadiazol-3-yl)thiophene-2-carboxamide]	92
O=C(NC[C@@H]1COCCN1C(=O)C1CCc2ccccc2O1)c1ccc(-c2noc(C(F)(F)F)n2)cc1 (stereo partly drawn) [Example 124, N-(((3R)-4-(3,4-dihydro-2H-chromen-2-ylcarbonyl)morpholin-3-yl)methyl)-4-(5-(trifluoromethyl)-1,2,4-oxadiazol-3-yl)benzamide]	90
Cn1nccc1C(=O)N1CCOC[C@@H]1CNC(=O)c1ccc(-c2noc(C(F)(F)F)n2)cn1 [Example 192, N-(((3S)-4-((1-methyl-1H-pyrazol-5-yl)carbonyl)morpholin-3-yl)methyl)-5-(5-(trifluoromethyl)-1,2,4-oxadiazol-3-yl)pyridine-2-carboxamide]	94
O=C(NC[C@H]1COCCN1C(=O)CCc1ccccc1)c1ccc(-c2noc(C(F)(F)F)n2)cn1 [Example 203, N-(((3S)-4-(3-phenylpropanoyl)morpholin-3-yl)methyl)-5-(5-(trifluoromethyl)-1,2,4-oxadiazol-3-yl)pyridine-2-carboxamide]	95
O=C(NC[C@@H]1COCCN1C(=O)c1ccc(OCC(F)(F)F)nc1)c1ccc(-c2noc(C(F)(F)F)n2)cc1 [Example 123, N-(((3R)-4-((6-(2,2,2-trifluoroethoxy)pyridin-3-yl)carbonyl)morpholin-3-yl)methyl)-4-(5-(trifluoromethyl)-1,2,4-oxadiazol-3-yl)benzamide]	95
O=C(NCC1COCCN1C(=O)c1ccccc1-c1ccccc1)c1ccc(-c2noc(C(F)(F)F)n2)s1 (stereo not shown) [Example 221, N-((4-(biphenyl-2-ylcarbonyl)morpholin-3-yl)methyl)-5-(5-(trifluoromethyl)-1,2,4-oxadiazol-3-yl)thiophene-2-carboxamide]	91
Cc1ccsc1C(=O)N1CCOCC1CNC(=O)c1ccc(-c2noc(C(F)(F)F)n2)s1 (stereo not shown) [Example 244, N-((4-((3-methyl-2-thienyl)carbonyl)morpholin-3-yl)methyl)-5-(5-(trifluoromethyl)-1,2,4-oxadiazol-3-yl)thiophene-2-carboxamide]	96
Cc1csc(C(=O)N2CCOC[C@@H]2CNC(=O)c2ccc(-c3noc(C(F)(F)F)n3)cc2)c1 [Example 73, N-(((3S)-4-((4-methyl-2-thienyl)carbonyl)morpholin-3-yl)methyl)-4-(5-(trifluoromethyl)-1,2,4-oxadiazol-3-yl)benzamide]	98
Cc1cc(C(=O)N2CCOC[C@H]2CNC(=O)c2ccc(-c3noc(C(F)(F)F)n3)cc2)cc(O)n1 [Example 122, N-(((3R)-4-(2-hydroxy-6-methylisonicotinoyl)morpholin-3-yl)methyl)-4-(5-(trifluoromethyl)-1,2,4-oxadiazol-3-yl)benzamide]	36
O=C(NC[C@H]1COCCN1C(=O)c1cc2ccccc2o1)c1ccc(-c2noc(C(F)(F)F)n2)cc1 [Example 53, N-(((3S)-4-(1-benzofuran-2-ylcarbonyl)morpholin-3-yl)methyl)-4-(5-(trifluoromethyl)-1,2,4-oxadiazol-3-yl)benzamide]	95
Cn1nc(C(F)(F)F)cc1C(=O)N1CCOCC1CNC(=O)c1ccc(-c2noc(C(F)(F)F)n2)s1 (stereo not shown) [Example 231, N-((4-((1-methyl-3-(trifluoromethyl)-1H-pyrazol-5-yl)carbonyl)morpholin-3-yl)methyl)-5-(5-(trifluoromethyl)-1,2,4-oxadiazol-3-yl)thiophene-2-carboxamide]	92
O=C(NC[C@H]1COCCN1C(=O)c1cc(F)cc(F)c1)c1ccc(-c2noc(C(F)(F)F)n2)cn1 [Example 186, N-(((3S)-4-(3,5-difluorobenzoyl)morpholin-3-yl)methyl)-5-(5-(trifluoromethyl)-1,2,4-oxadiazol-3-yl)pyridine-2-carboxamide]	99
Cc1ncsc1C(=O)N1CCOC[C@@H]1CNC(=O)c1ccc(-c2noc(C(F)(F)F)n2)cn1 [Example 196, N-(((3S)-4-((4-methyl-1,3-thiazol-5-yl)carbonyl)morpholin-3-yl)methyl)-5-(5-(trifluoromethyl)-1,2,4-oxadiazol-3-yl)pyridine-2-carboxamide]	96
Cc1ncsc1C(=O)N1CCOCC1CNC(=O)c1ccc(-c2noc(C(F)(F)F)n2)s1 (stereo not shown) [Example 238, N-((4-((4-methyl-1,3-thiazol-5-yl)carbonyl)morpholin-3-yl)methyl)-5-(5-(trifluoromethyl)-1,2,4-oxadiazol-3-yl)thiophene-2-carboxamide]	98
O=C(NC[C@@H]1COCCN1C(=O)C1CCOC1)c1ccc(-c2noc(C(F)(F)F)n2)cc1 (stereo partly drawn) [Example 151, N-(((3R)-4-(tetrahydrofuran-3-ylcarbonyl)morpholin-3-yl)methyl)-4-(5-(trifluoromethyl)-1,2,4-oxadiazol-3-yl)benzamide]	90
N#Cc1ccc(C(=O)N2CCOC[C@@H]2CNC(=O)c2ccc(-c3noc(C(F)(F)F)n3)cn2)cc1 [Example 190, N-(((3S)-4-(4-cyanobenzoyl)morpholin-3-yl)methyl)-5-(5-(trifluoromethyl)-1,2,4-oxadiazol-3-yl)pyridine-2-carboxamide]	95
Cn1cnc(C(=O)N2CCOCC2CNC(=O)c2ccc(-c3noc(C(F)(F)F)n3)cc2)c1 (stereo not shown) [Example 17, N-((4-((1-methyl-1H-imidazol-4-yl)carbonyl)morpholin-3-yl)methyl)-4-(5-(trifluoromethyl)-1,2,4-oxadiazol-3-yl)benzamide]	61
O=C(NCC1c2ccccc2CN1C(=O)c1ccccc1)c1ccc(-c2noc(C(F)(F)F)n2)cc1 (stereo not shown) [Example 170, N-((2-benzoyl-2,3-dihydro-1H-isoindol-1-yl)methyl)-4-(5-(trifluoromethyl)-1,2,4-oxadiazol-3-yl)benzamide]	80
O=C(NC[C@H]1COCCN1C(=O)C1CCOCC1)c1ccc(-c2noc(C(F)(F)F)n2)cc1 [Example 81, N-(((3S)-4-(tetrahydro-2H-pyran-4-ylcarbonyl)morpholin-3-yl)methyl)-4-(5-(trifluoromethyl)-1,2,4-oxadiazol-3-yl)benzamide]	94
